Values quoted from earlier work in US20130344150A1, “DIRECT COMPRESSION TABLETS OF OTILONIUM” (Abdi Ibrahim IIac Sanayi Ve Ticaret Anonim Sirketi, priority 2009, published 2013).

Key:
[1] = tested on: gastrointestinal-motility; settings: baseline and chemically or physically stimulated
[2] = clinical studies

Question: Which results are given for `CCCCCCCCOc1ccccc1C(=O)Nc1ccc(C(=O)OCC[N+](C)(CC)CC)cc1` [otilonium bromide]?
Answer: effect on gastrointestinal-motility [1]: inhibits both baseline and chemically or physically stimulated gastrointestinal-motility; tolerability [2]: good tolerability profile
